Laboratory results from patent US9944597B2, “Polysubstituted pyrroles having microtubule-disrupting, cytotoxic and antitumor activities and methods of use thereof” (THE BOARD OF REGENTS OF THE UNIVERSITY OF TEXAS SYSTEM, priority 2013, dated 2018).
Read-outs that look alike come from different tables or passages of the source.

How the values were obtained:
[1] = tested on: MDA-MB-435 (human melanoma cancer cells); test: Antiproliferative SRB assay, MDA-MB-435; assay type: cell-based; settings: read-out: MDA-MB-435 Anti-Proliferative Activity, IC50
Description: (§1) Cell Culture. Various representative cancer and other cell lines were sourced and grown as described previously [Mooberry, S. L., et al., Mol. Pharm. 72, 132-140 (2007)]. MDA-MB-435 (human melanoma cancer cells), and MDA-MB-231 (human breast cancer cells) were grown in IMEM Richter's Medium (Life Technologies, Grand Island, N.Y.) with 10% FBS (Hyclone, Logan, Utah) and 25 μg/mL gentamicin sulfate (Life Technologies). A-10 (embryonic rat vascular smooth muscle cells) and HeLa (human cervical cancer cells), SK-OV-3 (human ovarian cancer cells) and SK-OV-3-MDR-1-M6/6 (a clone of the SK-OV-3 that was generated from SK-OV-3 cells by adenovirus-mediated expression of MDR1) were grown in Basal Medium Eagle (BME, Sigma-Aldrich, St. Louis, Mo.) containing Earle's salts, 50 μg/ml gentamicin sulfate, and 10% FBS. HeLa cells (a single-cell clone derived from transduction of HeLa cells with wild-type (WT) βIII-tubulin) were grown in Dulbecco's Modified Eagle's Medium (DMEM, Life Technologies) containing 50 μg/mL gentamicin sulfate and 10% FBS.
(§2) Antiproliferative Effects. The pyrrole compounds were evaluated for their antiproliferative effects in a panel of cancer cell lines. Cells were plated into 96-well plates at predetermined densities and allowed to attach and proliferate for 24 hr, and then the compounds were added. After a 48 hr exposure to the compounds, the cells were fixed with trichloroacetic acid and cellular protein was determined using the sulforhodamine B (SRB) assay (Skehan et al., J. Natl. Cancer Inst. 82, 1107-12, (1990); Boyd and Paull Drug Devel. Res. 34, 91-109, (1995)). Concentration response curves were constructed, and the IC50 (the concentration required to inhibit proliferation by 50%) values were determined from the linear portions of the log concentration-response curves as described previously [Tinley, T. L., et al., Cancer Res. 63, 3211-3220, (2003)] as shown in Table 48.

[2] = tested on: HeLa (human cervical cancer cells); test: Antiproliferative SRB assay, HeLa; assay type: cell-based
Description: as §1, §2
(§3) First, drug resistance mediated by the expression of βIII tubulin was evaluated in an isogenic HeLa cell line pair. Expression of the βIII tubulin isotype is associated with clinical drug resistance to the taxanes in ovarian cancer, non small-cell lung cancer and breast cancer [Galmarini, C. M., et al., Clin. Cancer Res. 14, 4511-4516 (2008)]. Secondly, drug resistance mediated by the expression of the drug efflux pump protein, Pgp, was evaluated in the isogenic SK-OV-3 cell line pair. The expression of Pgp can lead to lower intracellular drug concentrations and diminished cytotoxic effects both in vitro and in vivo. All tubulin-binding anticancer drugs used currently in the clinic, except cabazitaxel, are substrates for Pgp, thus limiting their utility in drug resistant tumors [Penson, R. T., et al., Gynecol. Oncol. 93, 98-106 (2004)]. Differences in sensitivity between the parent and transformed cell line, indicative of resistance, was determined by calculating relative resistance (Rr) values in the two pairs of isogenic cell lines (dividing the IC50 of the expressing cell line by the IC50 of the parental cell line).

[3] = tested on: SK-OV-3 (human ovarian cancer cells); test: Antiproliferative SRB assay, SK-OV-3; assay type: cell-based
Description: as §1, §2
as §3, with “The expression of Pgp can lead to lower intracellular drug concentrations and diminished cytotoxic effects both in vitro and in vivo.” left out

HeLa WT-β-III cells = test: Antiproliferative SRB assay, βIII-tubulin expressing HeLa; assay type: cell-based, human; settings: for IC50: Table 49, βIII tubulin expressing line, 48 hr, SRB assay; for Rr (β-III): relative resistance: IC50 of expressing line divided by IC50 of parental HeLa
Description: as §1, §2, §3

SK-OV-3-MDR-1-6/6 cells = test: Antiproliferative SRB assay, Pgp expressing SK-OV-3; assay type: cell-based, human; settings: for IC50: Table 49, Pgp expressing line, 48 hr, SRB assay; for Rr (Pgp): relative resistance: IC50 of expressing line divided by IC50 of parental SK-OV-3
Description: as §1, §2
as §3, with “The expression of Pgp can lead to lower intracellular drug concentrations and diminished cytotoxic effects both in vitro and in vivo.” left out

A-10 cells = test: Cellular microtubule loss by indirect immunofluorescence; assay type: cell-based, rat; settings: read-out: EC50 Values (nM) for Microtubule Loss in A-10 cells
Description: The effects of representative compounds on cellular microtubules were evaluated in A-10 (embryonic rat vascular smooth muscle cell line) cells using indirect immunofluorescence techniques as previously described (Tinley et al., Cancer Res. 63, 3211-20 (2003)). Cells were visualized using a Nikon Eclipse 80i fluorescence microscope and NIS Elements software. Changes in both interphase and mitotic microtubules were noted and photographed. The EC50 values, the concentration that causes approximately 50% loss of interphase microtubules was determined by evaluating a range of concentrations of each compound and the percent cellular microtubule depolymerization that was observed visually at each concentration was noted.
Microtubules were visualized by indirect immunofluorescence using a β-tubulin antibody, and the DNA was visualized with DAPI. A representative concentration response curve for NT-7-16 is also shown in FIG. 1 that was used to calculate its corresponding EC50 for microtubule loss. Concentration response curves for microtubule loss were plotted using data from at least three experiments for each compound and the corresponding EC50 values for microtubule loss are presented in Table 50.

[4] = Homo sapiens, MDA-MB-435, Table 48, 48 hr exposure, SRB assay
[5] = Homo sapiens, MDA-MB-435, Table 52
[6] = Homo sapiens, HeLa, Table 48, 48 hr exposure, read-out: HeLa Anti-Proliferative Activity, IC50
[7] = Homo sapiens, HeLa, Table 49, parental line, 48 hr, read-out: HeLa IC50
[8] = Homo sapiens, SK-OV-3, Table 48, 48 hr exposure, read-out: SK-OV-3 Anti-Proliferative Activity, IC50
[9] = Homo sapiens, SK-OV-3, Table 49, parental line, 48 hr, read-out: SK-OV-3 IC50
[10] = Rattus norvegicus, A10, Table 50, concentration causing approximately 50% loss of interphase microtubules
[11] = Table 49, parental line, 48 hr, read-out: HeLa IC50
[12] = Table 49, parental line, 48 hr, read-out: SK-OV-3 IC50
[13] = Table 50, concentration causing approximately 50% loss of interphase microtubules

Molecule	melting point	IC50 [1, 4]	IC50 [1, 5]	IC50 [2, 6]	IC50 [2, 7]	IC50 [3, 8]	IC50 [3, 9]	IC50 (HeLa WT-β-III cells; Homo sapiens, HeLa)	Rr (β-III) (HeLa WT-β-III cells)	IC50 (SK-OV-3-MDR-1-6/6 cells; Homo sapiens, SK-OV-3)	Rr (Pgp) (SK-OV-3-MDR-1-6/6 cells)	EC50 (A-10 cells; [10])	other results
CCOC(=O)c1cc(-c2ccc(OC)c(OC)c2OC)c(C=O)[nH]1 [Example 1, 4-(2,3,4-trimethoxyphenyl)-5-formyl-1H-pyrrole 2-carboxylic acid ethyl ester]	138 to 140 °C	–	–	–	–	–	–	–	–	–	–	–	–
CCOC(=O)c1[nH]c(CO)c(-c2ccc(OC)c(OC)c2OC)c1Br [Example 5, 3-Bromo-5-(hydroxymethyl)-4-(2,3,4-trimethoxyphenyl)-1H-pyrrole 2-carboxylic acid ethyl ester]	–	25.7 ± 0.8 nM	25.7 ± 0.8 nM	33.4 ± 0.8 nM	33.4 ± 0.8 nM	37.4 ± 1.3 nM	37.4 ± 1.3 nM	27.4 ± 3.1 nM	0.8	46.6 ± 2.1 nM	1.2	76 nM	–
C=Cc1[nH]c(C(=O)OCC)c(Br)c1-c1ccc(OC)c(OC)c1OC [Example 7, 3-Bromo-5-vinyl-4-(2,3,4-trimethoxyphenyl)-1H-pyrrole 2-carboxylic acid ethyl ester]	–	17.6 ± 1 nM	17.6 ± 1 nM	23.8 ± 1.7 nM	23.8 ± 1.7 nM	26.6 ± 1.1 nM	26.6 ± 1.1 nM	20.5 ± 0.8 nM	0.9	28.1 ± 1.9 nM	1.1	54 nM	–
CCOC(=O)c1[nH]c(/C=C\C(=O)OC)c(-c2ccc(OC)c(OC)c2OC)c1Br [Example 8a, Cis-3-Bromo-5-(3-methoxy-3-oxoprop-1-en-1-yl)-4-(2,3,4-trimethoxyphenyl)-1H-pyrrole-2-carboxylic acid ethyl ester]	–	23.9 ± 1.2 nM	23.9 ± 1.2 nM	14.8 ± 0.2 nM	14.8 ± 0.2 nM	16.4 ± 0.9 nM	16.4 ± 0.9 nM	26 ± 1 nM	1.8	10.4 ± 0.9 nM	0.6	55 nM	–
CCOC(=O)c1[nH]c(/C=C/C(=O)OC)c(-c2ccc(OC)c(OC)c2OC)c1Br [Example 8b, Trans-3-Bromo-5-(3-methoxy-3-oxoprop-1-en-1-yl)-4-(2,3,4-trimethoxyphenyl)-1H-pyrrole-2-carboxylic acid ethyl ester]	–	9.3 ± 0.3 nM	9.3 ± 0.3 nM	10.9 ± 0.3 nM	10.9 ± 0.3 nM	22.3 ± 0.5 nM	22.3 ± 0.5 nM	19.4 ± 0.4 nM	1.8	26.7 ± 0.3 nM	1.2	24 nM	–
CCOC(=O)c1[nH]c(C=NO)c(-c2ccc(OC)c(OC)c2OC)c1Br [Example 10c]	–	–	–	–	–	–	–	–	1.4	–	1.8	–	IC50 ([1]; Table 52): 14 ± 0.8 nM; IC50 [2, 11]: 18 ± 0.9 nM; IC50 [3, 12]: 23.1 ± 0.5 nM; IC50 (HeLa WT-β-III cells): 25 ± 1.4 nM; IC50 (SK-OV-3-MDR-1-6/6 cells): 41.6 ± 1.9 nM; EC50 (A-10 cells; [13]): 56.2 nM; EC50 (A-10 cells; Table 52): 56.2 nM
CCOC(=O)c1[nH]c(CNCCNC(=O)OC(C)(C)C)c(-c2ccc(OC)c(OC)c2OC)c1Br [Example 19, 3-Bromo-5-[((N-2-tert-butoxycarbonylamino)-ethylamino)-methyl]-4-(2,3,4-trimethoxyphenyl)-1H-pyrrole 2-carboxylic acid ethyl ester]	235 to 237 °C	–	–	–	–	–	–	–	–	–	–	–	–
CCOC(=O)c1[nH]c(CNCCN)c(-c2ccc(OC)c(OC)c2OC)c1Br [Example 20, 5-[N-((2-Aminoethyl)amino)methyl]-3-Bromo-4-(2,3,4-trimethoxyphenyl)-1H-pyrrole 2-carboxylic acid ethyl ester]	135 to 137 °C	–	–	–	–	–	–	–	–	–	–	–	–
Cis-3-Bromo-4-(2,3,4-trimethoxyphenyl)-5-oximino-1H-pyrrole 2-carboxylic acid ethyl ester [Example 10b]	–	–	–	–	–	–	–	–	1.1	–	1.5	–	IC50 ([1]; Table 48, 48 hr exposure, SRB assay): 25.3 ± 3.1 nM; IC50 ([1]; Table 52): 25.3 ± 3.1 nM; IC50 ([2]; Table 48, 48 hr exposure, read-out: HeLa Anti-Proliferative Activity, IC50): 29.4 ± 1 nM; IC50 [2, 11]: 29.4 ± 1 nM; IC50 ([3]; Table 48, 48 hr exposure, read-out: SK-OV-3 Anti-Proliferative Activity, IC50): 33.7 ± 1.3 nM; IC50 [3, 12]: 33.7 ± 1.3 nM; IC50 (HeLa WT-β-III cells): 31.3 ± 0.5 nM; IC50 (SK-OV-3-MDR-1-6/6 cells): 49.6 ± 2.4 nM; EC50 (A-10 cells; [13]): 108 nM; EC50 (A-10 cells; Table 52): 108 nM
